In ChEMBL document CHEMBL5465560, “Selectivity Literature for EUbOPEN Chemogenomic Library” (2024):

How the values were obtained:
[1] = molecular target: T1, Myosin-IIIb (Homo sapiens) (UniProt Q8WXR4); test: Selectivity interaction (LanthaScreen Eu Kinase Binding Assay) EUB0001632a MYO3B; settings: at 10 µM
T1 sequence (whole entry): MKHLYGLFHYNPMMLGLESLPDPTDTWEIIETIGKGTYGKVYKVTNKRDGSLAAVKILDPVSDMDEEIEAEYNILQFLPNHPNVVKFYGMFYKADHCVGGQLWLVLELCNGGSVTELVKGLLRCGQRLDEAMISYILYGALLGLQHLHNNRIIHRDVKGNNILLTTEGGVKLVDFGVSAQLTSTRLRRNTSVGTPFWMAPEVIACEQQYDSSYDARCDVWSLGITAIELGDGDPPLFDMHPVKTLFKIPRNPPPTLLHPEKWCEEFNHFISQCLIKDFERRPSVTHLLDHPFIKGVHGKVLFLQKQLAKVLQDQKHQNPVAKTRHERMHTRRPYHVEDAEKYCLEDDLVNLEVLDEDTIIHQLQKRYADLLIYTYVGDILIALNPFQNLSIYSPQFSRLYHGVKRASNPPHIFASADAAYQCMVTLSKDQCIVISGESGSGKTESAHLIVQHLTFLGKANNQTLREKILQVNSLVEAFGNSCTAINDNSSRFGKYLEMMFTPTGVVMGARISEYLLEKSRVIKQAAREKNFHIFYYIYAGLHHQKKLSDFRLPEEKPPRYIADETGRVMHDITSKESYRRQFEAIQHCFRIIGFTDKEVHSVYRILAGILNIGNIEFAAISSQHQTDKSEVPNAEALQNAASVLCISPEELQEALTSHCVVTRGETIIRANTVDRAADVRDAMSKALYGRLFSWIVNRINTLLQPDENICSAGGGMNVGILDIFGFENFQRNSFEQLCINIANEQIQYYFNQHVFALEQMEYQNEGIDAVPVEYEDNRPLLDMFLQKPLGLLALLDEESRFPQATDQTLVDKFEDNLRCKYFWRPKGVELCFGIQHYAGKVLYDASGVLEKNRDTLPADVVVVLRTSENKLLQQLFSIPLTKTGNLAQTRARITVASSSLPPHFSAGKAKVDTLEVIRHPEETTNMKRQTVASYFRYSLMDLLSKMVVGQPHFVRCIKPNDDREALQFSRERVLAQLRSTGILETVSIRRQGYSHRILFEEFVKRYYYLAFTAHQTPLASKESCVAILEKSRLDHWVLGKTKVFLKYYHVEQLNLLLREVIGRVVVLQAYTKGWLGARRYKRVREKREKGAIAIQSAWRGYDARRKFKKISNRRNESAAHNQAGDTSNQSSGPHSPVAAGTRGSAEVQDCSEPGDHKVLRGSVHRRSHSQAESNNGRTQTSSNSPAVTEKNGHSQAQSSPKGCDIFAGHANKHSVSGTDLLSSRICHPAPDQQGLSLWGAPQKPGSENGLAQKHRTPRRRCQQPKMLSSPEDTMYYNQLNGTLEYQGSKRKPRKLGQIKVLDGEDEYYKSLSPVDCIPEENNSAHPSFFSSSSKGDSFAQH

[2] = molecular target: T2, Mitogen-activated protein kinase kinase kinase 7 (Homo sapiens) (UniProt O43318); test: Selectivity interaction (KinomeScan (DiscoverX)) EUB0000695a MAP3K7; settings: at 100 nM
T2 sequence (whole entry): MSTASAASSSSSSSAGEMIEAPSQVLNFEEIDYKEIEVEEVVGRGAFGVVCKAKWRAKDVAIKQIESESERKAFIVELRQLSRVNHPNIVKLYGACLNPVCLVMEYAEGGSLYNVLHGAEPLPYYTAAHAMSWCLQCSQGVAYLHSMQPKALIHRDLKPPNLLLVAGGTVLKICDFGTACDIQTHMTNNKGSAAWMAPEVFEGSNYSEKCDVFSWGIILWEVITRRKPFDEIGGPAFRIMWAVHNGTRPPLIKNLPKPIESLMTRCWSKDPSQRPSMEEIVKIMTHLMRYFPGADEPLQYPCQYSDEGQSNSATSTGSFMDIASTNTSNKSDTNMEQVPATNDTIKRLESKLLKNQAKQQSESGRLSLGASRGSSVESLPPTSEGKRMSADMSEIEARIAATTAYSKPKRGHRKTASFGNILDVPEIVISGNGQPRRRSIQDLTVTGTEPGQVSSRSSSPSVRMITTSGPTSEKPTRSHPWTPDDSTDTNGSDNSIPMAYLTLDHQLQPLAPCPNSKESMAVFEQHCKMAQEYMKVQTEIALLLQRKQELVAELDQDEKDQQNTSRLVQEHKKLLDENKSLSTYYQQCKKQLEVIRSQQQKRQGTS

[3] = molecular target: Serine/threonine-protein kinase 24 (Homo sapiens) (UniProt Q9Y6E0); test: Selectivity interaction (Ambit KINOMEscan and KiNATiv profiling in Jurkat cells) EUB0000090b STK24; assay type: cell-based; settings: at 1 µM
[4] = molecular target: Ribosomal protein S6 kinase beta-2 (Homo sapiens) (UniProt Q9UBS0); test: Selectivity interaction (Kinase panel (KiNativ target engagement assay in Jurkat cells)) EUB0001635a RPS6KB2; assay type: cell-based; settings: Selectivity number of off-targets 0.0, Selectivity number of targets 233.0, Source Knowledge https://www.sciencedirect.com/science/article/pii/S2451945619300674?via%3Dihub, at 1 µM
[5] = molecular target: Zinc finger CW-type PWWP domain protein 1 (Homo sapiens) (UniProt Q9H0M4); test: Selectivity interaction (PWWP, WD40, and Tudor domain panel (DSLS measurements, literature)) EUB0000270b ZCWPW1
[6] = system: Tyrosine-protein kinase ABL1 (Homo sapiens), P00519 [H396P]; test: Selectivity interaction (KinomeScan (DiscoverX)) EUB0000229b ABL1; settings: at 1 µM
[7] = molecular target: Ribosomal protein S6 kinase alpha-1 (Homo sapiens, UniProt Q15418); test: Selectivity interaction (KinomeScan (DiscoverX)) EUB0000229b RPS6KA1; settings: at 10 µM
[8] = molecular target: Serine/threonine-protein kinase PAK 4 (Homo sapiens, UniProt O96013); test: Selectivity interaction (KinomeScan (DiscoverX)) EUB0000092b PAK4; settings: at 10 µM
[9] = molecular target: Fibroblast growth factor receptor 1 (Homo sapiens, UniProt P11362); test: Selectivity interaction (KinomeScan (DiscoverX)) EUB0000618a FGFR1; settings: at 10 µM
Chain of Fibroblast growth factor receptor 1 (P11362 22-822 limits assumed): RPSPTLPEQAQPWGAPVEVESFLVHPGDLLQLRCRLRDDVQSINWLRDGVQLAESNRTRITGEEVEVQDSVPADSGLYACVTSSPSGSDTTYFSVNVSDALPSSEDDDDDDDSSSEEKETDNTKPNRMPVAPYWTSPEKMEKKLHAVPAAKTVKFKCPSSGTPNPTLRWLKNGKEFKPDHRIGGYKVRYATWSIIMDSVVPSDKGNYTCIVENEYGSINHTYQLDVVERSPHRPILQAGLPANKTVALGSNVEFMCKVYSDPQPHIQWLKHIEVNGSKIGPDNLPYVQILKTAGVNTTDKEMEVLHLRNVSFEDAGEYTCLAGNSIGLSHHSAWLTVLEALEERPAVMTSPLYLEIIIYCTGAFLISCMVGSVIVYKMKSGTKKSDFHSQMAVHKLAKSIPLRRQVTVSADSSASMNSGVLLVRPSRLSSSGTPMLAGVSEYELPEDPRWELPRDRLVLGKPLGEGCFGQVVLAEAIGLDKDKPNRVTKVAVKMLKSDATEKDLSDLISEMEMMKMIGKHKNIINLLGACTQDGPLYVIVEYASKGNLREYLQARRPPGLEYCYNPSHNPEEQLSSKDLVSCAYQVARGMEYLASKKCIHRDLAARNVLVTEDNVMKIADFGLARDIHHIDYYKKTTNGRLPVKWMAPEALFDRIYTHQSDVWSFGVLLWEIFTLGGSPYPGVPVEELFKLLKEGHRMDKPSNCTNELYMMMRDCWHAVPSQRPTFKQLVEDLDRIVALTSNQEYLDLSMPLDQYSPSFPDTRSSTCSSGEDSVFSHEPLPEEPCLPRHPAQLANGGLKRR

Chain of Ribosomal protein S6 kinase beta-2 (Homo sapiens) (Q9UBS0 whole entry, the tested form may be a part): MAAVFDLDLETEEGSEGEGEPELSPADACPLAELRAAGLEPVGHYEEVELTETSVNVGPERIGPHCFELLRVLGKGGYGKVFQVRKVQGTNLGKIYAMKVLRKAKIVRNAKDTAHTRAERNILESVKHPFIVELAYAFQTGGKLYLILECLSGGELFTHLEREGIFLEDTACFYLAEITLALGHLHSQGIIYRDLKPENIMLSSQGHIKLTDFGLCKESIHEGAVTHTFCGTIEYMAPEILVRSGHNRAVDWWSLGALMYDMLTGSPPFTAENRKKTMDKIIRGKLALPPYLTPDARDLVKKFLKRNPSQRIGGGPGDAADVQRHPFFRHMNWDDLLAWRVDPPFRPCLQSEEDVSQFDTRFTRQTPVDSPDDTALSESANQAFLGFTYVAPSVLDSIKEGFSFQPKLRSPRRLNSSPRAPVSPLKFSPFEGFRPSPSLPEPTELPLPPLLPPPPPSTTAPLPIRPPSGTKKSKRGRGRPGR
Chain of Zinc finger CW-type PWWP domain protein 1 (Homo sapiens) (Q9H0M4 whole entry, the tested form may be a part): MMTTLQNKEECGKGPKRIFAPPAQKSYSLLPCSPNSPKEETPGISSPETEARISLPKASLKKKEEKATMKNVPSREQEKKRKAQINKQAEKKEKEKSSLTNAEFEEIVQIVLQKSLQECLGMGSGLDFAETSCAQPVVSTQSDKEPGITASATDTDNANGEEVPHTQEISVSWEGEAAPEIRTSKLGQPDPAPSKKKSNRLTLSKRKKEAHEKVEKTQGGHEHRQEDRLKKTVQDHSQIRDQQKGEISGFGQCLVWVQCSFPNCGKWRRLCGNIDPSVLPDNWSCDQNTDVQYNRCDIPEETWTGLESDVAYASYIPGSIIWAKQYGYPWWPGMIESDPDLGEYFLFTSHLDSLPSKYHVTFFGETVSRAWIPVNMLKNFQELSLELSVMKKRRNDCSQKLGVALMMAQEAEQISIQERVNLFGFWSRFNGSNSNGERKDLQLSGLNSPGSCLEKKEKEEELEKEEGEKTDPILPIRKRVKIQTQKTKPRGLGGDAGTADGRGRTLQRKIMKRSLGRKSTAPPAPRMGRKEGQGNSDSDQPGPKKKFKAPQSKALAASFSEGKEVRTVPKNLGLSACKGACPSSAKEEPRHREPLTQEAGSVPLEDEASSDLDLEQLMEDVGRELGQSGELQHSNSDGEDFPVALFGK
Chain of Serine/threonine-protein kinase PAK 4 (O96013 whole entry, looked up): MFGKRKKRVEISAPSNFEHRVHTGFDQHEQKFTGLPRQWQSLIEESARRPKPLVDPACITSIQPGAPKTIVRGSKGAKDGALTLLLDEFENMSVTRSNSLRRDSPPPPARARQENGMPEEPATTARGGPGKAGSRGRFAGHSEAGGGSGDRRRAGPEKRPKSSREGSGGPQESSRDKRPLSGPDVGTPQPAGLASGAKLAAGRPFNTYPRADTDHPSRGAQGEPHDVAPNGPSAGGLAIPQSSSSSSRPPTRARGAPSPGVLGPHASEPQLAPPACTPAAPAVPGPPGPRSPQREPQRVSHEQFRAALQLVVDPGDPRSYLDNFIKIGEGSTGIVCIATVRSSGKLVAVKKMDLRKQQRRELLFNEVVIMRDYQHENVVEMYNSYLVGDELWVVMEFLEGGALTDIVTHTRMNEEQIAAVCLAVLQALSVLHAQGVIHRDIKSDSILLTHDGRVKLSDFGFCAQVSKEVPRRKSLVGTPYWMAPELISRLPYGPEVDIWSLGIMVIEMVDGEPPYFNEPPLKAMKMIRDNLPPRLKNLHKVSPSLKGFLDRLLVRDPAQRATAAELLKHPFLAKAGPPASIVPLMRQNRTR
Chain of Serine/threonine-protein kinase 24 (Homo sapiens) (Q9Y6E0 whole entry, looked up): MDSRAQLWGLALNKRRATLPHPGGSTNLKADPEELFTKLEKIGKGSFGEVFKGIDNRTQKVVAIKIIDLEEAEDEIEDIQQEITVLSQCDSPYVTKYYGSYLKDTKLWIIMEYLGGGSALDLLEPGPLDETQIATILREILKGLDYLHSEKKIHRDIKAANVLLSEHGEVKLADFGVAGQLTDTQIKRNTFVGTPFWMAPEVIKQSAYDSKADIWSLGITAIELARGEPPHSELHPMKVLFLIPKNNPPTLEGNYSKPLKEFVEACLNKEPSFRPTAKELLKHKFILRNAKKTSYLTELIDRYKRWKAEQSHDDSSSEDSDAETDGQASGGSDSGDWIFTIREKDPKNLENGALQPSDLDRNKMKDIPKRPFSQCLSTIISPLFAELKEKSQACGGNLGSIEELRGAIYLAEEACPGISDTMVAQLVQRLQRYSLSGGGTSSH
Chain of Ribosomal protein S6 kinase alpha-1 (Q15418 whole entry): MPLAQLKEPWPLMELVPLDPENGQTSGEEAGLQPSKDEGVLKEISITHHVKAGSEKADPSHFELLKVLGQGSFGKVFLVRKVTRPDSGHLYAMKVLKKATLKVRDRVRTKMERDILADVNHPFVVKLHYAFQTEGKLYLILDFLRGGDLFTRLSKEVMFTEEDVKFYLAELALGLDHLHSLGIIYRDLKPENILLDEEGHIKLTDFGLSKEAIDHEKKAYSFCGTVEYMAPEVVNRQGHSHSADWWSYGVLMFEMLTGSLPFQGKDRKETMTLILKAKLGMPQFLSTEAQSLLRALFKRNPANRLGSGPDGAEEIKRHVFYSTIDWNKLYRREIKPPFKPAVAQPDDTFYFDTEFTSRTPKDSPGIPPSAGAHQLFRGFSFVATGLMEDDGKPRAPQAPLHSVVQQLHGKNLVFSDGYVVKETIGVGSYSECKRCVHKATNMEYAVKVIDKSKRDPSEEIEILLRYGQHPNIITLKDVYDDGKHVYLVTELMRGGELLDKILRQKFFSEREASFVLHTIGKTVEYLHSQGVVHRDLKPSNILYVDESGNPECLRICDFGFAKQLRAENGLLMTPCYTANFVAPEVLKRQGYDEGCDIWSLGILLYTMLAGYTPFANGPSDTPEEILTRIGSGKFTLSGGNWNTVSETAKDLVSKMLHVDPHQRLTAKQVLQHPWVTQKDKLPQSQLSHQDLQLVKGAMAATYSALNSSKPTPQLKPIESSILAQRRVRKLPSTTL

SMILES: Cn1cc(-n2cnc3c(NCc4nc5cc(Cl)c(Cl)cc5[nH]4)nc(N4CCOCC4)nc32)cn1
- % of inhibition [1]: -8.99%

SMILES: Cc1cc(F)c(C(=O)Nc2cccc(-c3nncn3C(C)C)n2)cc1-n1cnc(C2CC2)c1
- % of control [2]: 81%

SMILES: CN(C)C/C=C/C(=O)Nc1ccc(C(=O)N2CCCC(Nc3ncc(Cl)c(-c4c[nH]c5ccccc45)n3)C2)cc1 (centres undefined)
- % of control [3]: 94%

SMILES: C=CC(=O)Nc1ccc(C(=O)Nc2[nH]nc3c2CN(C(=O)N[C@H](CN(C)C)c2ccccc2)C3(C)C)cc1
- % of engagement [4]: -8.9%

SMILES: Cc1cc(CN)cc(C)c1-c1ncn(C)c1-c1cncn1C
- dTagg [5]: 0 K

SMILES: COc1cc(N(C)c2ccnc3ccc(C(F)(F)F)cc23)cc(OC)c1OC
- % binding [6]: 78%
- % binding [7]: 100%

SMILES: CCC(=O)N1CCN(c2ccc(-n3c(=O)ccc4cnc5ccc(-c6cnc7ccccc7c6)cc5c43)cc2C(F)(F)F)CC1
- % of control [8]: 100%

SMILES: O[C@H]1CC[C@H](Nc2ncc3nc(Nc4c(F)cc(F)cc4F)n([C@H]4CCOC4)c3n2)CC1
- % of control [9]: 69%
